The source of these data is patent US20130085105A1, “Transdermal Administration Of Peptides” (The Provost, Fellows and Scholars of the College of Holy …, priority 2010, published 2013).

Series [1] can be described thus: pH of donor vehicles containing Compound B oleate. Format: physicochemical. Here is the method: The donor vehicles described herein were prepared at or close to neutral pH; this pH is close to the pH at which the fatty acid salts were synthesized and isolated. Because this work focused upon fatty acid peptide salts, a neutral pH was preferred to maintain molecular pairing. As described by Fini et al. (Int. J. Pharm., 187:163-173, 1999), adverse pH conditions can cause salt/ion pairs to dissociate, resulting in the loss of many properties beneficial to increasing transdermal flux, for example lipophilicity. […] Significant dissociation would have led to distortion of the flux profiles due to the formation of free oleic acid, in itself a potent penetration enhancer.

Series [2] in a line: Prediction of permeability coefficient Kp and human steady-state plasma level. An excerpt:
A further approach to estimating human plasma levels following transdermal administration was outlined by Howes et al. (ATLA, 24:81-106, 1996) and was based on a mass balance approach whereby the input and output quantities of drug are considered equal. Rewriting “input=output” for transdermal systems gives:
A×Kp×Cappl=CL×Cp Eqn. 10.6
where A is the area of application, Kp is the permeability coefficient of the drug through the skin, Cappl is the applied concentration, CL is the plasma clearance and Cp is the steady-state plasma concentration of the drug. Rearranging the equation to estimate Cp gives: […]
A number of methods for determining Kp based on the lipophilicity and molecular weight of the drug in question are available. Potts and Guy (Pharm. Res., 9:663-669, 1992) found the following relationship:
Another method of calculating Kp which makes use of in vitro data is described by Hewitt et al. (In vitro cutaneous disposition of a topical diclofenac lotion in human skin: Effect of a multidose regimen, in Percutaneous Absorption, Bronaugh, R. L. and Maibach, H. I. (Eds.), Marcel Dekker Inc., New York, 1999):
Kp(cm/h)=absorption(μg)/[area×concentration(μg/cm^3)×time] Eqn. 10.11
Values for Kp were calculated using Eqns. 10.9 and 10.10 using the MW value for Compound B di-oleate (1,767 g/mol) and its previously determined KOW value (340.43). Additionally, Eqn. […]

Series [3] can be described thus: Solubility of somatostatin fatty-acid salts. Format: physicochemical. Conditions: 24 hours. As to the method:
The solubilities of Compound A and Compound B oleate were determined in deionized water, phosphate-buffered saline (PBS; pH 7.4) and n-octanol. Analysis was carried out by placing an excess of each salt with 1 ml of the selected solvent into four 4 ml sealed HPLC vials. The samples were allowed to equilibrate at 37° C. for 24 hours with shaking. Each of the four dispersions was then filtered through a 0.2 μm nylon membrane (Pall Gelman, Ann Arbor, Mich., U.S.A.). Prior to HPLC analysis, the n-octanol samples were diluted 1:100 with methanol and the PBS and deionized water samples were diluted 1:10 in de-ionized water. Table 7 lists the solubilities of Compound A and Compound B oleate salts in deionized water, PBS and n-octanol.

As to “[4-(2-hydroxyethyl)]-1-piperazinylacetyl-D-Phe-c(Cys-Tyr-D-Trp-Lys-Abu-Cys)-Thr-NH2 [Compound B di-oleate]”, the pH worked out at 6.89 in series [1] (approx. 5 mg/ml in 55% EtOH 40% H2O 5% 1,8-Cineole), 7.08 in series [1] (approx. 5 mg/ml in 80% Prop. Glycol 15% Decanol 5% 1,8-Cineole) and 7.56 in series [1] (approx. 5 mg/ml in 80% Prop. Glycol 15% Dodecanol 5% 1,8-Cineole). For the same substance, in series [2] (Eqn. 10.11 from in vitro absorption across pig epidermis, optimized donor vehicle), the “Kp Value Obtained” value is 0.0003476 cm/h. Also, the “steady-state plasma level (Cp)” value in series [2] (predicted for human, Eqn. 10.8 with Kp of Eqn. 10.11, area 20 cm^2, 5 mg/cm^3 applied) is 1.6998 ng/mL. For the same substance, in series [3] (PBS pH 7.4, 37° C.), the “Solubility PBS” value was found to be 1.302 mg/mL. Besides, the “Solubility DI H2O” value in series [3] (deionized water, 37° C.) is 0.050 mg/mL. Moreover, in series [3] (n-octanol, 37° C.), the “Solubility n-Octanol” value turned out to be 136.90 mg/mL.
